Test results as given in PubChem BioAssay AID2060899 (Molecular Pharmacology Branch, DTP, NCI, 2025).

System: 565726-208-R1-J5-PDC complex spheroids, growth inhibition
Experiment: Anticancer human tumor 565726-208-R1-J5-PDC patient-derived pancreatic adenocarcinoma cell line growth inhibition [RAS]
Details: for IC50: curve of first compound; for viability, T/C: stronger effect = lower value
Procedure, shortened: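 Tumour cells grown as complex spheroids with HUVEC endothelial cells and mesenchymal stem cells, treated with RAS pathway inhibitor combinations. Each agent spans half-log steps from near clinical Cmax, or 10 microM where Cmax is unknown.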
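Also: spheroids exposed to compounds for seven days before readout.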
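For viability, T/C in this document: 100% = DMSO vehicle control viability.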

SMILES: CC1(O)CCCC1n1c(=O)c(C(F)F)cc2cnc(NC3CCN(S(C)(=O)=O)CC3)nc21 (stereo not drawn) + CCn1c(-c2cc(N3CCN(C)CC3)cnc2C(C)OC)c2c3cc(ccc31)-c1csc(n1)CC(NC(=O)C1CC1C)C(=O)N1CCCC(N1)C(=O)OCC(C)(C)C2
- IC50 (second compound 0.000949 µM): 1010 nM
- IC50 (second compound 0.003 µM): < 31.6 nM
- IC50 (second compound 0.00949 µM): < 31.6 nM
- IC50 (second compound 0.03 µM): < 31.6 nM
- IC50 (second compound 0.0949 µM): < 31.6 nM
- IC50 (second compound 0.3 µM): < 31.6 nM
- viability, T/C (second compound 0.000949 µM, first compound 0.0316 µM): 58%
- viability, T/C (second compound 0.000949 µM, first compound 0.1 µM): 46.6%
- viability, T/C (second compound 0.000949 µM, first compound 0.316 µM): 47.6%
- viability, T/C (second compound 0.000949 µM, first compound 1 µM): 50.4%
- viability, T/C (second compound 0.000949 µM, first compound 3.16 µM): 33.1%
- viability, T/C (second compound 0.000949 µM, first compound 10 µM): 3.21%
- viability, T/C (second compound 0.003 µM, first compound 0.0316 µM): 48.5%
- viability, T/C (second compound 0.003 µM, first compound 0.1 µM): 45.7%
- viability, T/C (second compound 0.003 µM, first compound 0.316 µM): 43.9%
- viability, T/C (second compound 0.003 µM, first compound 1 µM): 37.1%
- viability, T/C (second compound 0.003 µM, first compound 3.16 µM): 26.5%
- viability, T/C (second compound 0.003 µM, first compound 10 µM): 2.82%
- viability, T/C (second compound 0.00949 µM, first compound 0.0316 µM): 41.4%
- viability, T/C (second compound 0.00949 µM, first compound 0.1 µM): 36.7%
- viability, T/C (second compound 0.00949 µM, first compound 0.316 µM): 37.6%
- viability, T/C (second compound 0.00949 µM, first compound 1 µM): 31.7%
- viability, T/C (second compound 0.00949 µM, first compound 3.16 µM): 25%
- viability, T/C (second compound 0.00949 µM, first compound 10 µM): 3.34%
- viability, T/C (second compound 0.03 µM, first compound 0.0316 µM): 34.2%
- viability, T/C (second compound 0.03 µM, first compound 0.1 µM): 29.8%
- viability, T/C (second compound 0.03 µM, first compound 0.316 µM): 31.3%
- viability, T/C (second compound 0.03 µM, first compound 1 µM): 31.2%
- viability, T/C (second compound 0.03 µM, first compound 3.16 µM): 17.3%
- viability, T/C (second compound 0.03 µM, first compound 10 µM): 3.06%
- viability, T/C (second compound 0.0949 µM, first compound 0.0316 µM): 25.7%
- viability, T/C (second compound 0.0949 µM, first compound 0.1 µM): 25.4%
- viability, T/C (second compound 0.0949 µM, first compound 0.316 µM): 26%
- viability, T/C (second compound 0.0949 µM, first compound 1 µM): 24.2%
- viability, T/C (second compound 0.0949 µM, first compound 3.16 µM): 15.3%
- viability, T/C (second compound 0.0949 µM, first compound 10 µM): 2.88%
- viability, T/C (second compound 0.3 µM, first compound 0.0316 µM): 19.9%
- viability, T/C (second compound 0.3 µM, first compound 0.1 µM): 25.7%
- viability, T/C (second compound 0.3 µM, first compound 0.316 µM): 22%
- viability, T/C (second compound 0.3 µM, first compound 1 µM): 24.2%
- viability, T/C (second compound 0.3 µM, first compound 3.16 µM): 14.6%
- viability, T/C (second compound 0.3 µM, first compound 10 µM): 3.06%

SMILES: Nc1ccn(C2OC(CO)C(O)C2(F)F)c(=O)n1 (stereo not drawn)
- viability, T/C (compound 0.00316 µM): 108% [middle of 4 runs]
- viability, T/C (compound 0.0316 µM): 70.9% [middle of 4 runs]
- viability, T/C (compound 0.1 µM): 62.3% [middle of 4 runs]
- viability, T/C (compound 1 µM): 38.8% [middle of 4 runs]

SMILES: CCc1c2c(nc3ccc(O)cc13)-c1cc3c(c(=O)n1C2)COC(=O)[C@]3(O)CC + CCn1c(-c2cccnc2C(C)OC)c2c3cc(ccc31)N1CCOC(CC(NC(=O)C(C(C)C)N(C)C(=O)C3(F)CCN(C(=O)C#CC(C)(C)N(C)C)CC3)C(=O)N3CCCC(N3)C(=O)OCC(C)(C)C2)C1
- IC50 (second compound 0.000949 µM): 2.34 nM
- IC50 (second compound 0.003 µM): 2.11 nM
- IC50 (second compound 0.00949 µM): 2.33 nM
- IC50 (second compound 0.03 µM): 2.06 nM
- IC50 (second compound 0.0949 µM): 1.98 nM
- IC50 (second compound 0.3 µM): 1.64 nM
- viability, T/C (second compound 0.000949 µM, first compound 0.000949 µM): 79.2%
- viability, T/C (second compound 0.000949 µM, first compound 0.003 µM): 39.5%
- viability, T/C (second compound 0.000949 µM, first compound 0.00949 µM): 25.5%
- viability, T/C (second compound 0.000949 µM, first compound 0.03 µM): 14.4%
- viability, T/C (second compound 0.000949 µM, first compound 0.0949 µM): 8.88%
- viability, T/C (second compound 0.000949 µM, first compound 0.3 µM): 4.44%
- viability, T/C (second compound 0.003 µM, first compound 0.000949 µM): 80.3%
- viability, T/C (second compound 0.003 µM, first compound 0.003 µM): 33.2%
- viability, T/C (second compound 0.003 µM, first compound 0.00949 µM): 23.6%
- viability, T/C (second compound 0.003 µM, first compound 0.03 µM): 15.5%
- viability, T/C (second compound 0.003 µM, first compound 0.0949 µM): 10.2%
- viability, T/C (second compound 0.003 µM, first compound 0.3 µM): 5.03%
- viability, T/C (second compound 0.00949 µM, first compound 0.000949 µM): 79%
- viability, T/C (second compound 0.00949 µM, first compound 0.003 µM): 38.5%
- viability, T/C (second compound 0.00949 µM, first compound 0.00949 µM): 27%
- viability, T/C (second compound 0.00949 µM, first compound 0.03 µM): 13.2%
- viability, T/C (second compound 0.00949 µM, first compound 0.0949 µM): 8.85%
- viability, T/C (second compound 0.00949 µM, first compound 0.3 µM): 4.19%
- viability, T/C (second compound 0.03 µM, first compound 0.000949 µM): 75.5%
- viability, T/C (second compound 0.03 µM, first compound 0.003 µM): 34.5%
- viability, T/C (second compound 0.03 µM, first compound 0.00949 µM): 23.8%
- viability, T/C (second compound 0.03 µM, first compound 0.03 µM): 13.5%
- viability, T/C (second compound 0.03 µM, first compound 0.0949 µM): 8.23%
- viability, T/C (second compound 0.03 µM, first compound 0.3 µM): 3.69%
- viability, T/C (second compound 0.0949 µM, first compound 0.000949 µM): 73.3%
- viability, T/C (second compound 0.0949 µM, first compound 0.003 µM): 35.2%
- viability, T/C (second compound 0.0949 µM, first compound 0.00949 µM): 20.5%
- viability, T/C (second compound 0.0949 µM, first compound 0.03 µM): 11.1%
- viability, T/C (second compound 0.0949 µM, first compound 0.0949 µM): 6%
- viability, T/C (second compound 0.0949 µM, first compound 0.3 µM): 2.81%
- viability, T/C (second compound 0.3 µM, first compound 0.000949 µM): 67.1%
- viability, T/C (second compound 0.3 µM, first compound 0.003 µM): 30%
- viability, T/C (second compound 0.3 µM, first compound 0.00949 µM): 16.7%
- viability, T/C (second compound 0.3 µM, first compound 0.03 µM): 8.71%
- viability, T/C (second compound 0.3 µM, first compound 0.0949 µM): 5.1%
- viability, T/C (second compound 0.3 µM, first compound 0.3 µM): 2.77%
